{"source": "patent US9314468B2", "about": "“Chemokine receptor modulators” (Altiris Therapeutics, Inc., priority 2008, dated 2016)"}
{"biological_target": "T1, CXCR4 (Homo sapiens (Human), UniProt P61073)", "T1 sequence (P61073 whole entry)": "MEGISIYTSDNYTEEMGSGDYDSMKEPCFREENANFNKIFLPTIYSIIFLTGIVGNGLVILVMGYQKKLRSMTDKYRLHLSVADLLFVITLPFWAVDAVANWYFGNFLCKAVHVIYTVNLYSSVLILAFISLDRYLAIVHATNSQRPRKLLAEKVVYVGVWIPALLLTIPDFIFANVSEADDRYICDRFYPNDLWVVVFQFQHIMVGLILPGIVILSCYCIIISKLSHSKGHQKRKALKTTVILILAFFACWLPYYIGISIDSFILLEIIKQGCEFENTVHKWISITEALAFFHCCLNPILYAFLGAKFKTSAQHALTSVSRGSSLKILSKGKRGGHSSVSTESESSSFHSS", "experiment": "Functional calcium mobilization assay (SDF-1α induced)", "format": "cell-based", "conditions": "CCRF-CEM, read-out: % inhibition at 1 μM", "protocol": "(§1) Functional modulation of CXCR4 was determined by calcium mobilization assay using leukemic lymphoid CEM cells, which naturally express high levels of CXCR4. Generally, the assay is carried out as follows: Cells are grown in vitro to confluency. On the day of the assay, cells are removed from the incubator, culture medium removed and replaced with a calcium sensitive dye (Calcium3 assay kit; Molecular Devices, Sunnyvale, Calif.). The cells are allowed to dye load for 45-60 min at 37° C. in the cell culture incubator and then allowed to equilibrate to room temperature for no more than 15 min before assay.\n(§2) Compound plates were generated containing up to 3% dimethyl sulfoxide in media kept at room temperature. Test compounds were added to the cells at a 1:3 dilution, and calcium mobilization was measured using a Flex Station fluorescence imager (Molecular Devices). This first read was used to determine direct agonist activation of the CXCR4 receptor by the test compounds. […] Full dose response curves were generated daily for SDF-1a to calculate IC50 concentrations. The IC50 values are reported. In cases, where one was not determined, a percent inhibition at the 1 μM concentration was extrapolated.\n(§3) Functional calcium mobilization assay was conducted as described in Example 27.", "units": {"inhibition at 1 µM": "%"}}
{"smiles": "O=C1CNCCN1CCCN(Cc1nccc2c3ccccc3n(CC(=O)N3CCOCC3)c12)[C@H]1CCCc2cccnc21", "inhibition at 1 µM": 0}
{"smiles": "CC(C)(C)OC(=O)CN(CCCCN(Cc1nccc2c1[nH]c1ccccc12)[C@H]1CCCc2cccnc21)CC(=O)OC(C)(C)C", "inhibition at 1 µM": 18}
{"smiles": "O=C1c2ccccc2C(=O)N1CCCn1c2ccccc2c2ccnc(CN[C@H]3CCCc4cccnc43)c21", "inhibition at 1 µM": 0}
{"smiles": "c1cnc2c(c1)CCCC2N(CCN1CCNCC1)Cc1nccc2c1[nH]c1ccccc12", "note": "(stereo not shown)", "inhibition at 1 µM": 0}
{"smiles": "NCCCCN(Cc1cc2c3ccccc3n(CC(=O)N3CCOCC3)c2cn1)[C@H]1CCCc2cccnc21", "inhibition at 1 µM": 0}
{"smiles": "CC(C)(C)OC(=O)N(CCCCN(Cc1nccc2c1[nH]c1ccccc12)[C@H]1CCCc2cccnc21)C(=O)OC(C)(C)C", "inhibition at 1 µM": 19}
{"smiles": "OCCCCN(Cc1nccc2c1[nH]c1ccccc12)[C@H]1CCCc2cccnc21", "inhibition at 1 µM": 0}
{"smiles": "c1cnc2c(c1)CCCC2N(CCCNC1=NCCN1)Cc1nccc2c1[nH]c1ccccc12", "note": "(stereo not shown)", "inhibition at 1 µM": 6}
{"smiles": "NCc1ccc(CN(Cc2nccc3c4ccccc4n(CC(=O)N4CCOCC4)c23)[C@H]2CCCc3cccnc32)cc1", "inhibition at 1 µM": 0}
{"smiles": "CS(=O)(=O)NCCCCN(Cc1nccc2c1[nH]c1ccccc12)[C@H]1CCCc2cccnc21", "inhibition at 1 µM": 0}
{"smiles": "c1cnc2c(c1)CCCC2N(CCCN1CCOCC1)Cc1nccc2c1[nH]c1ccccc12", "note": "(stereo not shown)", "inhibition at 1 µM": 20}
{"smiles": "O=C(CN(Cc1nccc2c1[nH]c1ccccc12)[C@H]1CCCc2cccnc21)NC1CCNCC1", "inhibition at 1 µM": 0}
{"smiles": "NC1CCN(C(=O)CN(Cc2nccc3c2[nH]c2ccccc23)[C@H]2CCCc3cccnc32)CC1", "inhibition at 1 µM": 0}
{"smiles": "NCC#CCN(Cc1nccc2c1[nH]c1ccccc12)[C@H]1CCCc2cccnc21", "inhibition at 1 µM": 0}
{"smiles": "N[C@@H](CCCN(Cc1nccc2c3ccccc3n(CC(=O)N3CCOCC3)c12)[C@H]1CCCc2cccnc21)C(=O)O", "inhibition at 1 µM": 0}
{"smiles": "CS(=O)(=O)N1CCN(CCCN(Cc2nccc3c2[nH]c2ccccc23)C2CCCc3cccnc32)CC1", "note": "(stereo not shown)", "inhibition at 1 µM": 27}
{"smiles": "NCCCCN(C(=O)c1nccc2c1[nH]c1ccccc12)C1CCCc2cccnc21", "note": "(stereo not shown)", "inhibition at 1 µM": 0}
{"smiles": "CC(C)(C)OC(=O)[C@@H](N)CCCN(Cc1nccc2c3ccccc3n(CC(=O)N3CCOCC3)c12)[C@H]1CCCc2cccnc21", "inhibition at 1 µM": 0}
{"smiles": "c1cnc2c(c1)CCC[C@@H]2NCc1cc2c(cn1)[nH]c1ccccc12", "inhibition at 1 µM": 39}
{"smiles": "c1cnc2c(c1)CCCC2N(CCNC1=NCCN1)Cc1nccc2c1[nH]c1ccccc12", "note": "(stereo not shown)", "inhibition at 1 µM": 0}
{"smiles": "CCN(CC)CCCCN(Cc1nccc2c1[nH]c1ccccc12)C1CCCc2cccnc21", "note": "(stereo not shown)", "inhibition at 1 µM": 4}
{"smiles": "CN(Cc1nccc2c1[nH]c1ccccc12)[C@H]1CCCc2cccnc21", "inhibition at 1 µM": 0}
{"smiles": "CS(=O)(=O)N1CCC(CCN(Cc2nccc3c2[nH]c2ccccc23)C2CCCc3cccnc32)CC1", "note": "(stereo not shown)", "inhibition at 1 µM": 5}
{"biological_target": "T1, CXCR4", "experiment": "Functional calcium mobilization assay (SDF-1α induced)", "format": "cell-based", "conditions": "CEM cells, SDF-1α challenge at EC80-EC90; read-out: Ca Flux IC50", "protocol": "as §1, §2, §3", "units": {"IC50": "nM"}}
{"smiles": "NCCCCN(Cc1nccc2c1[nH]c1ccccc12)C1CCCc2cccnc21", "note": "(stereo not shown) [drawing 654]", "IC50": 142}
{"smiles": "CN1CCN(CCCN(Cc2nccc3c2[nH]c2ccccc23)[C@H]2CCCc3cccnc32)CC1", "IC50": 206}
{"smiles": "c1ccc(Cn2c3ccccc3c3ccnc(CN(CCCN4CCNCC4)[C@H]4CCCc5cccnc54)c32)nc1", "IC50": 176}
{"smiles": "CN(Cc1nccc2c3ccccc3n(CCCCN)c12)[C@H]1CCCc2cccnc21", "IC50": 3370}
{"smiles": "NC(=O)CCCN(Cc1nccc2c1[nH]c1ccccc12)[C@H]1CCCc2cccnc21", "IC50": 1440}
{"smiles": "NCCCCN(Cc1nccc2c3ccccc3n(CC(=O)N3CCOCC3)c12)[C@H]1CCCc2cccnc21", "note": "[drawing 701]", "IC50": 79}
{"smiles": "NCCCCN(Cc1cc2c3ccccc3n(CC(=O)O)c2cn1)[C@H]1CCCc2cccnc21", "IC50": 864}
{"smiles": "NCCCCN(Cc1nccc2c3ccccc3n(CCN3CCNCC3)c12)[C@H]1CCCc2cccnc21", "note": "[drawing 754]", "IC50": 63}
{"smiles": "c1ccc(CNCCCCN(Cc2nccc3c2[nH]c2ccccc23)C2CCCc3cccnc32)nc1", "note": "(stereo not shown)", "IC50": 5100}
{"smiles": "CN(C)C(=O)NCCCCN(Cc1nccc2c1[nH]c1ccccc12)C1CCCc2cccnc21", "note": "(stereo not shown)", "IC50": 38}
{"smiles": "c1cnc2c(c1)CCC[C@@H]2N(CCCCNCC1CC1)Cc1nccc2c1[nH]c1ccccc12", "IC50": 451}
{"smiles": "O=C(Cn1c2ccccc2c2ccnc(CN(CCCCNCc3ccncc3)[C@H]3CCCc4cccnc43)c21)N1CCOCC1", "IC50": 2830}
{"smiles": "NCCCCN(Cc1nccc2c1[nH]c1ccccc12)[C@H]1CCCc2cccnc21", "IC50": 30}
{"smiles": "NCCCCN(Cc1nccc2c3ccccc3n(CCN3CCOCC3)c12)[C@H]1CCCc2cccnc21", "IC50": 4}
{"smiles": "NCCCCN(Cc1cc2c(cn1)[nH]c1ccccc12)[C@H]1CCCc2cccnc21", "IC50": 100}
{"smiles": "CCN(Cc1nccc2c3ccccc3n(CCCN3C(=O)c4ccccc4C3=O)c12)[C@H]1CCCc2cccnc21", "IC50": 1640}
{"smiles": "NCCCn1c2ccccc2c2ccnc(CN(CCCN3CCNC(=O)C3)[C@H]3CCCc4cccnc43)c21", "IC50": 30}
{"smiles": "NC(=O)NCCCCN(Cc1nccc2c1[nH]c1ccccc12)[C@H]1CCCc2cccnc21", "IC50": 6670}
{"smiles": "NCCCCN(Cc1nccc2c3ccccc3n(CCO)c12)[C@H]1CCCc2cccnc21", "IC50": 11}
{"smiles": "CC(C)(C)C(=O)N1CCN(CCCN(Cc2nccc3c2[nH]c2ccccc23)C2CCCc3cccnc32)CC1", "note": "(stereo not shown)", "IC50": 1930}
{"smiles": "c1cnc2c(c1)CCC[C@@H]2N(CCCN1CCNCC1)Cc1nccc2c1[nH]c1ccccc12", "IC50": 87}
{"smiles": "c1cnc2c(c1)CCCC2N(CCCN1CCNCC1)Cc1nccc2c1[nH]c1ccccc12", "note": "(stereo not shown)", "IC50": 18}
{"smiles": "NCCCCN(Cc1nccc2c3ccccc3n(CC(=O)NC3CCNCC3)c12)[C@H]1CCCc2cccnc21", "IC50": 110}
{"smiles": "COCCn1c2ccccc2c2ccnc(CN(CCCCN)[C@H]3CCCc4cccnc43)c21", "IC50": 20}
{"smiles": "NCCCCN(Cc1nccc2c3ccccc3n(CC3CC3)c12)[C@H]1CCCc2cccnc21", "IC50": 4}
{"smiles": "CN(Cc1nccc2c3ccccc3n(CCCN)c12)[C@H]1CCCc2cccnc21", "IC50": 1050}
{"smiles": "NCCCCN(Cc1nccc2c3ccccc3n(CCC3CCOCC3)c12)[C@H]1CCCc2cccnc21", "IC50": 13}
{"smiles": "NCCCCN(Cc1nccc2c3ccccc3n(CC(=O)N3CC[S+]([O-])CC3)c12)[C@H]1CCCc2cccnc21", "IC50": 61}
{"smiles": "NCCCCN(Cc1nccc2c3ccccc3n(Cc3ccccc3)c12)[C@H]1CCCc2cccnc21", "IC50": 47}
{"smiles": "NCCCCN(Cc1nccc2c3ccccc3n(CC(=O)N3CCC(O)CC3)c12)[C@H]1CCCc2cccnc21", "IC50": 212}
{"smiles": "Cn1c2ccccc2c2cc(CN(CCCCN)[C@H]3CCCc4cccnc43)ncc21", "IC50": 57}
{"smiles": "O=C(Cn1c2ccccc2c2ccnc(CN(CCCN3CCNCC3)[C@H]3CCCc4cccnc43)c21)N1CCCCC1", "IC50": 405}
{"smiles": "NCCCn1c2ccccc2c2ccnc(CN[C@H]3CCCc4cccnc43)c21", "IC50": 8890}
{"smiles": "NCCCCN(Cc1nccc2c3ccccc3n(CCCN3CCNC(=O)C3)c12)[C@H]1CCCc2cccnc21", "IC50": 4}
{"smiles": "NCCCCN(Cc1nccc2c1[nH]c1ccccc12)[C@@H]1CCCc2cccnc21", "IC50": 1340}
{"smiles": "CN1CCN(CCCN(Cc2nccc3c4ccccc4n(CC(=O)N4CCOCC4)c23)[C@H]2CCCc3cccnc32)CC1", "IC50": 628}
{"smiles": "c1ccc(Cn2c3ccccc3c3ccnc(CN(CCCN4CCNCC4)[C@H]4CCCc5cccnc54)c32)cc1", "IC50": 152}
{"smiles": "NCCCCN(Cc1nccc2c3ccccc3n(CCCN3CCNCC3=O)c12)[C@H]1CCCc2cccnc21", "IC50": 20}
{"smiles": "O=C(Cn1c2ccccc2c2ccnc(CN(CCCCNCc3cccnc3)[C@H]3CCCc4cccnc43)c21)N1CCOCC1", "IC50": 1400}
{"smiles": "NCCCCN(Cc1nccc2c3ccccc3n(CC(=O)N3CCCCC3)c12)[C@H]1CCCc2cccnc21", "IC50": 270}
{"smiles": "N[C@H]1CC[C@H](CN(Cc2nccc3c4ccccc4n(CC(=O)N4CCOCC4)c23)[C@H]2CCCc3cccnc32)CC1", "IC50": 2150}
{"smiles": "NCCCCN(Cc1nccc2c3ccccc3n(CC(=O)O)c12)[C@H]1CCCc2cccnc21", "note": "[drawing 709]", "IC50": 22}
{"smiles": "COCCn1c2ccccc2c2ccnc(CN(CCCN3CCNCC3)[C@H]3CCCc4cccnc43)c21", "IC50": 49}
{"smiles": "NCCCn1c2ccccc2c2ccnc(CN(CCCN3CCNCC3)[C@H]3CCCc4cccnc43)c21", "IC50": 5}
{"biological_target": "T1, CXCR4", "experiment": "Cellular impedance change induced by SDF-1a (cellular dielectric spectroscopy)", "format": "cell-based", "conditions": "HeLa cells, endogenous CXCR4, EC50 concentration of SDF-1a, 30 minutes; read-out: Antagonist IC50", "protocol": "This assay measures the change in impedance that occurs when cells are stimulated with SDF-1a. Changes in shape and cytoskeleton result in a change of impedance that is dependent on the activation of the CXCR4 receptor. This assay is contracted to MDS Pharma Services and performed as described in http://discovery.mdsps.com/Catalog/Services/Screening/CellKey/AssayDetails.aspx?id=7 (Assay 930070). Briefly, human HeLa cells expressing endogenous CXCR4 are grown in vitro and receptor activation in live cells is measured using cellular dielectric spectroscopy (CDS).", "units": {"IC50": "nM"}}
{"smiles": "O=C(O)Cn1c2ccccc2c2ccnc(CN(CCCN3CCNCC3)C3CCCc4cccnc43)c21", "note": "(stereo not shown)", "IC50": 26}
{"smiles": "C[C@@H]1CN(C(=O)Cn2c3ccccc3c3ccnc(CN(CCCCN)C4CCCc5cccnc54)c32)C[C@H](C)O1", "note": "(stereo partly shown)", "IC50": 9.9}
{"smiles": "CN1CCN(C(=O)Cn2c3ccccc3c3ccnc(CN(CCCCN)C4CCCc5cccnc54)c32)CC1", "note": "(stereo not shown)", "IC50": 11}
{"smiles": "NCCCCN(Cc1nccc2c3ccccc3n(CC(N)=O)c12)C1CCCc2cccnc21", "note": "(stereo not shown)", "IC50": 5.8}
{"smiles": "NCCCCN(Cc1nccc2c3ccccc3n(CC(=O)NC3CCNCC3)c12)C1CCCc2cccnc21", "note": "(stereo not shown) [drawing 814]", "IC50": 12}
{"smiles": "c1cnc2c(c1)CCCC2N(CCCN1CCNCC1)Cc1nccc2c3ccccc3n(CCN3CCOCC3)c12", "note": "(stereo not shown) [drawing 811]", "IC50": 9.3}
{"smiles": "NCCCCN(Cc1nccc2c3ccccc3n(CC(=O)N3CCC(O)CC3)c12)C1CCCc2cccnc21", "note": "(stereo not shown)", "IC50": 12}
{"smiles": "O=C(Cn1c2ccccc2c2ccnc(CN(CCCN3CCNCC3)C3CCCc4cccnc43)c21)N1CCOCC1", "note": "(stereo not shown)", "IC50": 15}
{"smiles": "C#CCn1c2ccccc2c2ccnc(CN(CCCCN)C3CCCc4cccnc43)c21", "note": "(stereo not shown)", "IC50": 5.5}
